Test results reported in patent US7071206B2, “Agents for treating neurodegenerative disorders” (Medivation, Inc., priority 1995, dated 2006).

Tested on: patients suffering from Alzheimer's disease
Assay: Clinical trial of dimebon tablets, inventors' scale (E. E. Bukatina et al.; 0 = absence of a symptom, 4 = greatest manifestation)
Format: in vivo, human
Conditions: for mean value of delirium manifestations: 10 patients with delirious symptoms prior to treatment; for mean value of depressive manifestations: 12 patients with depressive manifestations
Method: The test was carried out under the direct supervision by two of the inventors, namely E. E. Bukatina and V. Grigorieva, in 14 patients who agreed to take part in the tests, 13 of whom lived in a boarding house for senile persons and one patient lived with their family.
Alzheimer's disease was diagnosed on the basis of criteria ICD-10 NINCDS ADRDA.
Dimebon in the form of tablets (comprising 10 mg of dimebon, 30 mg of lactose, 5 mg of magnesium stearate was prescribed for oral administration in a dose of 0.02 g three to times a day. The patients living in the boarding house received dimebon for 58 days. A patient (observation 14) who was under outpatient observation continued taking the agent for a month after the completion of the tests.
Before the treatment with dimebon, and at 4 and 8 weeks after treatment the patients were examined according to Hazegawa's scale and the inventors' scale (“Social and Clinical Psychiatry”, 1992, No.4, pp.29–37) which includes the following indexes: (1) orientation in locality, time, immediate surroundings and one's own personality; (2) orientation in space; (3) memory for the past; (4) memory for the present; (5) “life in the past”; (6) (a) articulation, (b) difficulty in finding words, and distortion of words; (c) naming of objects; (d) following instructions; (7) concentration (of attention); (8) an affective sphere; (a) high spirits, (b) low spirits; (9) delirium; (10) hearing hallucinations; (11) visual hallucinations; (12) senile or senile-like confusion (when motion anxiety is accompanied by the revival of the past experience); (13) irritability; (14) anxiety; (15) asthenia; (16) headaches; (17) dizziness; (18) tearfulness; (19) spontaneous activity; (20) elementary self-service; and (21 control of sphincters.
According to the Hazegawa's scale, the 0 score indicates the poorest result; on the contrary, according to the inventors' scale, the 0 score indicates the absence of a symptom 4 score indicates the greatest manifestation thereof. […] Before the therapy was started, the patients had been independently examined by two doctors who used the inventors' scale. The examination during the treatment was carried out by the doctors using both the scales. The evaluation according to all the inventors' scale points during all the tests and their variations during the treatment with dimebon are given in the Appendix.
According to the inventors' scale, the degree of the disturbance if the cognitive functions was determined by a sum of evaluations according to the first 5 scale points reflecting the condition of memory, orientation and relation with the reality. The disturbance of speech was dealt with separately and was determined by a sum of evaluations according to items 6b-6d.
Both absolute evaluations of the signs under investigation (the evaluation prior to treatment is a mean evaluation of the two examinations) and variations in them were analysed in the course of therapy. In doing so, only those changes that were beyond the range of evaluations obtained in two pre-treatment examinations were taken into consideration.
The test results reflected the condition of the patients at the time of the examination. Any changes in the metal state observed in the interval between the tests and disappearing by the moment of examination according to the scale were described in the section “Clinical Observations”.
The statistical data processing was carried out by means of Student's t-test and Fisher's “Fi” criterion.

[1] = after 4 weeks vs two examinations prior to treatment, + improvement, − deterioration
[2] = after 4 weeks, mean of 14 patients

In the case of `Cc1ccc2c(c1)c1c(n2CCc2ccc(C)nc2)CCN(C)C1` [No. 10, 2,8-dimethyl-5-[2-(6-methyl-3-pyridyl)ethyl]-2,3,4,5-tetrahydro-1H-pyrido[4,3-b]indole], the “Cognitive functions (first 5 scale points): no variations, %” value (4 weeks) was 81.4%, the “Cognitive functions (first 5 scale points): no variations, abs.” value (4 weeks) was 57 and the “Cognitive functions: X (no variations in the function prior to and during the treatment), %” value (4 weeks) was 7.1%. For the same molecule, the “Cognitive functions: X (no variations in the function prior to and during the treatment), abs.” value (4 weeks) was 5, the “Speech functions (items 6b, c, d): no variations, %” value (4 weeks) was 54.8% and the “Speech functions (items 6b, c, d): no variations, abs.” value (4 weeks) was 23. The “Speech functions: X (no variations in the function prior to and during the treatment), %” value (4 weeks) was 33.3%, the “Speech functions: X (no variations in the function prior to and during the treatment), abs.” value (4 weeks) was 14 and the “Cognitive functions (first 5 scale points): no variations, %” value (8 weeks) was 53.6%. For the same molecule, the “Cognitive functions (first 5 scale points): no variations, abs.” value (8 weeks) was 41, the “Cognitive functions: X (no variations in the function prior to and during the treatment), %” value (8 weeks) was 7.1% and the “Cognitive functions: X (no variations in the function prior to and during the treatment), abs.” value (8 weeks) was 5. For the same molecule, the “Speech functions (items 6b, c, d): no variations, %” value (8 weeks) was 45.2%, the “Speech functions (items 6b, c, d): no variations, abs.” value (8 weeks) was 19 and the “Speech functions: X (no variations in the function prior to and during the treatment), %” value (8 weeks) was 30.95%. For the same molecule, the “Speech functions: X (no variations in the function prior to and during the treatment), abs.” value (8 weeks) was 13, the “mean value of delirium manifestations” value (4 weeks) was 0.8±0.33 and the “mean value of delirium manifestations” value (8 weeks) was 0.7±0.27. The “mean value of depressive manifestations” value (after 4 weeks) was 0.58±0.18 score, the “mean value of depressive manifestations” value (after 8 weeks) was 0.58±0.14 score and the “cognitive functions (Hazegawa's scale and inventor's scale), conclusion” value (14 patients, especially patients with mild dementia) was “significant improvement in cognitive functions”. For the same molecule, the “mean score of tearfulness” value (after 4 weeks) was 0.2±0.18, the “Item 1 (orientation in locality, time, immediate surroundings and one's own personality): change during the course of the therapy” value [1] was “+0.11 +/− 0.07 scores” and the “Item 2 (orientation in space): change during the course of the therapy” value [1] was “+0.11 +/− 0.07 scores”. The “Item 3 (memory for the past): change during the course of the therapy” value [1] was “+0.07 +/− 0.07 scores”, the “Item 4 (memory for the present): change during the course of the therapy” value [1] was 0 +/− 0 scores and the “Item 5 (life in the past): change during the course of the therapy” value [1] was “+0.14 +/− 0.08 scores”. For the same molecule, the “Item 6a (speech): change during the course of the therapy” value [1] was “+0.11 +/− 0.07 scores”, the “Item 6b (difficulty in finding words, and distortion of words): change during the course of the therapy” value [1] was 0 +/− 0 scores and the “Item 6g (speech): change during the course of the therapy” value [1] was −0.07 +/− 0.12 scores. The “Item 7 (concentration of attention): change during the course of the therapy” value [1] was 0 +/− 0.5 scores, the “Item 8b (low spirits): change during the course of the therapy” value [1] was “+0.41 +/− 0.17 scores” and the “Item 9 (delirium): change during the course of the therapy” value [1] was “+0.07 +/− 0.09 scores”. The “Item 13 (irritability): change during the course of the therapy” value [1] was “+0.29 +/− 0.13 scores”, the “Item 14 (anxiety): change during the course of the therapy” value [1] was −0.04 +/− 0.13 scores and the “Item 15 (asthenia): change during the course of the therapy” value [1] was −0.11 +/− 0.09 scores. For the same molecule, the “Item 16 (headaches): change during the course of the therapy” value [1] was “+0.54 +/− 0.21 scores”, the “Item 17 (dizziness): change during the course of the therapy” value [1] was −0.14 +/− 0.17 scores and the “Item 18 (tearfulness): change during the course of the therapy” value [1] was −0.14 +/− 0.14 scores. The “Item 19 (spontaneous activity): change during the course of the therapy” value [1] was 0 +/− 0 scores, the “Item 20 (elementary self-service): change during the course of the therapy” value [1] was “+0.07 +/− 0.07 scores” and the “Item 1 (orientation in locality, time, immediate surroundings and one's own personality): mean value” [2] was 1.75 +/− 0.23 scores. The “Item 2 (orientation in space): mean value” [2] was 0.32 +/− 0.15 scores, the “Item 3 (memory for the past): mean value” [2] was 2.29 +/− 0.21 scores and the “Item 4 (memory for the present): mean value” [2] was 2.21 +/− 0.22 scores. For the same molecule, the “Item 5 (life in the past): mean value” [2] was 1.75 +/− 0.27 scores, the “Item 6a (speech): mean value” [2] was 0.71 +/− 0.21 scores and the “Item 6b (difficulty in finding words, and distortion of words): mean value” [2] was 0.43 +/− 0.17 scores. For the same molecule, the “Item 6g (speech): mean value” [2] was 0.46 +/− 0.16 scores, the “Item 7 (concentration of attention): mean value” [2] was 1.75 +/− 0.26 scores and the “Item 8b (low spirits): mean value” [2] was 0.5 +/− 0.16 scores. For the same molecule, the “Item 9 (delirium): mean value” [2] was 0.57 +/− 0.29 scores, the “Item 13 (irritability): mean value” [2] was 0.21 +/− 0.15 scores and the “Item 14 (anxiety): mean value” [2] was 0.29 +/− 0.12 scores. For the same molecule, the “Item 15 (asthenia): mean value” [2] was 0.18 +/− 0.1 scores, the “Item 16 (headaches): mean value” [2] was 0.32 +/− 0.21 scores and the “Item 17 (dizziness): mean value” [2] was 0.71 +/− 0.27 scores. The “Item 18 (tearfulness): mean value” [2] was 0.07 +/− 0.07 scores and the “Item 19 (spontaneous activity): mean value” [2] was 1.29 +/− 0.22 scores.
